Measured values from patent publication US11591604B2, “Gene expression in Bacteroides” (Massachusetts Institute of Technology, priority 2015, dated 2023).

System: NanoLuc
Assay: NanoLuc luciferase reporter expression from constitutive promoters and RBSs integrated with pNBU2
Type: cell-based, B. thetaiotaomicron
Settings: RBS combined with promoter PBT1311, NanoLuc reporter, three biological replicates
From the text: FIGS. 1A-1G. Genetic parts to control expression in B. thetaiotaomicron. (FIG. 1A) The ranges of gene expression are shown for the different gene regulation systems provided herein. (FIG. 1B) IntN2 catalyzes stable integration of pNBU2-based expression constructs into one of two attBT2 sites in the B. thetaiotaomicron genome. The two attBT2 sites (attBT2-1 at nucleotide (nt) 6,217,227 and attBT2-2 at nt 6,138,320) are in the 3′ ends of tRNA^Ser genes (BT_t71 and BT_t70, respectively). (FIG. 1C) Constitutive promoters and ribosome binding sites for the construction of gene expression libraries. The putative −33 and −7 regions of the PBT1311 promoter, the Shine-Delgarno sequence, and the start codon are indicated by black boxes. Numbers below the black boxes represent nucleotide locations relative the PBT1311 transcription start site. The 26 nt sequences introduced in the PAM promoters are shown (see also FIGS. 6A-6B). Numbers at the edges of the boxes indicate the PBT1311 nucleotides replaced or the insertion site within the promoter. The location of residues randomized in the rpiL* RBS library are indicated with gray arrows (for library A: nt −14, −13, −12; for library B: nt −21, −18, −15; and for library C: nt −17, −16, −11; nt numbering is relative to the translation start site). (FIG. 1D) Activity was measured for a set of constitutive promoters and their cognate RBSs. Furthermore, a set of constitutive promoters (PBT1311, PAM1, PAM2, PAM3, PAM4) was combined with RBSs of varying strengths. Gene expression was measured using a luciferase reporter (NanoLuc). (FIG. 1E) Three large RBS libraries were constructed and combined with promoter PBT1311 to span 10^3-fold in gene expression. For reference, the parent rpiL* RBS is indicated with a black arrow. For D and E, error bars represent the standard deviation of three independent biological replicates made on separate days. (FIG. 1F) The strength of each RBS was compared to the predicted free energy of folding for the mRNA (ΔGfold,). (FIG. 1G) Strong (SEQ ID NO: 210) and weak (SEQ ID NO: 211) consensus sequences for the rpiL* −21 to −11 RBS region targeted by mutagenesis (residue locations are stated relative to the translation start site) are provided. Frequency logos were generated for the 11 strongest and 11 weakest RBSs by comparing the frequency of each nucleotide at each position in that group with the frequency of that nucleotide in that position in the full library. Position −20 and −19 were not randomized and are thus are not shown in the frequency logos.
All genetic parts in this study were characterized using the integration vector pNBU2 to ensure genetic stability of the constructs (FIG. 1B). The pNBU2 plasmid encodes the intN2 tyrosine integrase, which mediates sequence-specific recombination between the attN site of pNBU2 and one of two attBT sites located in the 3′ ends of the two tRNA^Ser genes, BT_t70 and BT_t71, on the B. thetaiotaomicron chromosome (FIG. 1B). Insertion of the pNBU2 plasmid inactivates the tRNA^Ser gene, and simultaneous insertion into both BT_t70 and BT_t71 is unlikely due to the essentiality of tRNA^Ser. pNBU2-based vectors have been used for single-copy complementation in B. thetaiotaomicron in in vitro studies (Koropatkin N M et al. Nat. Rev. Microbiol. 10:323-35, 2012) and in vivo mouse models (Martens E C et al. Cell Host Microbe 4:447-57, 2008).
B. thetaiotaomicron genetic parts were characterized with NanoLuc luciferase (Hall M P et al. ACS Chem. Biol. 7:1848-1857, 2012), which is a small (19 kDa) modified shrimp luciferase. Efforts to use members of the green fluorescent protein family and a FMN-based fluorescent reporter were not successful. NanoLuc oxidizes the exogenously-added substrate furimazine to produce glow-type bioluminescence (Emax=460 nm) with a signal half-life of 2 hr. […]

Going from “A2: RBS, SEQ ID NO: 15 (DNA TCCCGCATTTTAAAATAAAATAAATTATTTTTTTACTTAAACGAAT; chemistry not fully specified)” to “A3: RBS, SEQ ID NO: 24 (DNA TCCCGCATTTTAAAATAAAATAAATTATTAGTTTAGTTAAACGAAT; chemistry not fully specified)”, the “Average Luminescence (RLU/CFU)” value falls from 0.03616 RLU/CFU to 0.02867 RLU/CFU.

First: A4: RBS, SEQ ID NO: 29 (DNA TCCCGCATTTTAAAATAAAATAAATTATTAATTTAATTAAACGAAT; chemistry not fully specified)
Second: A5: RBS, SEQ ID NO: 32 (DNA TCCCGCATTTTAAAATAAAATAAATTATTTCTTTACTTAAACGAAT; chemistry not fully specified)
The “Average Luminescence (RLU/CFU)” value of the first is higher: 0.02664 RLU/CFU for the first, 0.02579 RLU/CFU for the second.

First: A6: RBS, SEQ ID NO: 33 (DNA TCCCGCATTTTAAAATAAAATAAATTATTTCTTTAATTAAACGAAT; chemistry not fully specified)
Second: A7: RBS, SEQ ID NO: 34 (DNA TCCCGCATTTTAAAATAAAATAAATTATTAGTTTAATTAAACGAAT; chemistry not fully specified)
The “Average Luminescence (RLU/CFU)” value of the first is higher: 0.0256 RLU/CFU for the first, 0.02467 RLU/CFU for the second.

First: A8: RBS, SEQ ID NO: 44 (DNA TCCCGCATTTTAAAATAAAATAAATTATTAGTTTATTTAAACGAAT; chemistry not fully specified)
Second: A9: RBS, SEQ ID NO: 46 (DNA TCCCGCATTTTAAAATAAAATAAATTATTGTTTTACTTAAACGAAT; chemistry not fully specified)
The “Average Luminescence (RLU/CFU)” value of the first is higher: 0.02026 RLU/CFU for the first, 0.0186 RLU/CFU for the second.

Going from “A10: RBS, SEQ ID NO: 49 (DNA TCCCGCATTTTAAAATAAAATAAATTATTGCTTTAGTTAAACGAAT; chemistry not fully specified)” to “A12: RBS, SEQ ID NO: 56 (DNA TCCCGCATTTTAAAATAAAATAAATTATTGTTTTAATTAAACGAAT; chemistry not fully specified)”, the “Average Luminescence (RLU/CFU)” value falls from 0.01835 RLU/CFU to 0.01552 RLU/CFU.

First: A13: RBS, SEQ ID NO: 58 (DNA TCCCGCATTTTAAAATAAAATAAATTATTGATTTACTTAAACGAAT; chemistry not fully specified)
Second: A14: RBS, SEQ ID NO: 59 (DNA TCCCGCATTTTAAAATAAAATAAATTATTTCTTTATTTAAACGAAT; chemistry not fully specified)
The “Average Luminescence (RLU/CFU)” value of the first is higher: 0.01484 RLU/CFU for the first, 0.01475 RLU/CFU for the second.

Compared with “A15: RBS, SEQ ID NO: 64 (DNA TCCCGCATTTTAAAATAAAATAAATTATTATTTTACTTAAACGAAT; chemistry not fully specified)”, “A16: RBS, SEQ ID NO: 65 (DNA TCCCGCATTTTAAAATAAAATAAATTATTTATTTACTTAAACGAAT; chemistry not fully specified)” is lower in “Average Luminescence (RLU/CFU)” value: 0.01335 RLU/CFU for the first, 0.01329 RLU/CFU for the second.

Compared with “A17: RBS, SEQ ID NO: 66 (DNA TCCCGCATTTTAAAATAAAATAAATTATTTTTTTAGTTAAACGAAT; chemistry not fully specified)”, “A18: RBS, SEQ ID NO: 69 (DNA TCCCGCATTTTAAAATAAAATAAATTATTCATTTATTTAAACGAAT; chemistry not fully specified)” is lower in “Average Luminescence (RLU/CFU)” value: 0.013 RLU/CFU for the first, 0.01237 RLU/CFU for the second.

Going from “A19: RBS, SEQ ID NO: 70 (DNA TCCCGCATTTTAAAATAAAATAAATTATTTTTTTATTTAAACGAAT; chemistry not fully specified)” to “A20: RBS, SEQ ID NO: 71 (DNA TCCCGCATTTTAAAATAAAATAAATTATTTATTTATTTAAACGAAT; chemistry not fully specified)”, the “Average Luminescence (RLU/CFU)” value falls from 0.01206 RLU/CFU to 0.01179 RLU/CFU.

Compared with “A21: RBS, SEQ ID NO: 73 (DNA TCCCGCATTTTAAAATAAAATAAATTATTTATTTACTTAAACGAAT; chemistry not fully specified)”, “A22: RBS, SEQ ID NO: 78 (DNA TCCCGCATTTTAAAATAAAATAAATTATTGCTTTATTTAAACGAAT; chemistry not fully specified)” is lower in “Average Luminescence (RLU/CFU)” value: 0.01018 RLU/CFU for the first, 0.009586 RLU/CFU for the second.

Compared with “A23: RBS, SEQ ID NO: 79 (DNA TCCCGCATTTTAAAATAAAATAAATTATTAGTTTACTTAAACGAAT; chemistry not fully specified)”, “A24: RBS, SEQ ID NO: 83 (DNA TCCCGCATTTTAAAATAAAATAAATTATTCTTTTACTTAAACGAAT; chemistry not fully specified)” is lower in “Average Luminescence (RLU/CFU)” value: 0.009507 RLU/CFU for the first, 0.009158 RLU/CFU for the second.

First: A25: RBS, SEQ ID NO: 84 (DNA TCCCGCATTTTAAAATAAAATAAATTATTCCTTTAATTAAACGAAT; chemistry not fully specified)
Second: A26: RBS, SEQ ID NO: 87 (DNA TCCCGCATTTTAAAATAAAATAAATTATTACTTTATTTAAACGAAT; chemistry not fully specified)
The “Average Luminescence (RLU/CFU)” value of the first is higher: 0.008671 RLU/CFU for the first, 0.008113 RLU/CFU for the second.

Going from “A27: RBS, SEQ ID NO: 89 (DNA TCCCGCATTTTAAAATAAAATAAATTATTGGTTTAGTTAAACGAAT; chemistry not fully specified)” to “A28: RBS, SEQ ID NO: 94 (DNA TCCCGCATTTTAAAATAAAATAAATTATTCTTTTATTTAAACGAAT; chemistry not fully specified)”, the “Average Luminescence (RLU/CFU)” value falls from 0.007908 RLU/CFU to 0.006884 RLU/CFU.

Going from “A29: RBS, SEQ ID NO: 95 (DNA TCCCGCATTTTAAAATAAAATAAATTATTCCTTTATTTAAACGAAT; chemistry not fully specified)” to “A30: RBS, SEQ ID NO: 101 (DNA TCCCGCATTTTAAAATAAAATAAATTATTCCTTTACTTAAACGAAT; chemistry not fully specified)”, the “Average Luminescence (RLU/CFU)” value falls from 0.006833 RLU/CFU to 0.005604 RLU/CFU.

Going from “A31: RBS, SEQ ID NO: 103 (DNA TCCCGCATTTTAAAATAAAATAAATTATTGGTTTATTTAAACGAAT; chemistry not fully specified)” to “A32: RBS, SEQ ID NO: 104 (DNA TCCCGCATTTTAAAATAAAATAAATTATTCTTTTAGTTAAACGAAT; chemistry not fully specified)”, the “Average Luminescence (RLU/CFU)” value falls from 0.005462 RLU/CFU to 0.005311 RLU/CFU.

Compared with “A33: RBS, SEQ ID NO: 106 (DNA TCCCGCATTTTAAAATAAAATAAATTATTTCTTTAGTTAAACGAAT; chemistry not fully specified)”, “A34: RBS, SEQ ID NO: 107 (DNA TCCCGCATTTTAAAATAAAATAAATTATTTGTTTACTTAAACGAAT; chemistry not fully specified)” is lower in “Average Luminescence (RLU/CFU)” value: 0.005258 RLU/CFU for the first, 0.005181 RLU/CFU for the second.

Going from “A35: RBS, SEQ ID NO: 110 (DNA TCCCGCATTTTAAAATAAAATAAATTATTCATTTAGTTAAACGAAT; chemistry not fully specified)” to “A36: RBS, SEQ ID NO: 111 (DNA TCCCGCATTTTAAAATAAAATAAATTATTTGTTTAGTTAAACGAAT; chemistry not fully specified)”, the “Average Luminescence (RLU/CFU)” value falls from 0.004513 RLU/CFU to 0.004309 RLU/CFU.

Compared with “A37: RBS, SEQ ID NO: 113 (DNA TCCCGCATTTTAAAATAAAATAAATTATTTGTTTAATTAAACGAAT; chemistry not fully specified)”, “A38: RBS, SEQ ID NO: 114 (DNA TCCCGCATTTTAAAATAAAATAAATTATTCCTTTAGTTAAACGAAT; chemistry not fully specified)” is lower in “Average Luminescence (RLU/CFU)” value: 0.003964 RLU/CFU for the first, 0.003824 RLU/CFU for the second.
